29 molecules from patent US12065436B2, “Cardiac sarcomere inhibitors” (Cytokinetics, Inc., priority 2018, dated 2024) can be followed below.

The target in the assay is bovine cardiac myofibrils (full-length cardiac myosin ATPase in the native sarcomere) (Bos taurus (Bovine), UniProt Q9BE39). Briefly: Skinned bovine cardiac myofibril ATPase assay (PK/LDH-coupled). The format is biochemical. The conditions noted are these: Ca2+ activating to 75% of maximal rate; for CDMF75 IC15: concentration giving 15% inhibition; for IC50: read-out: CDMF75 IC50. The gist of the method:
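Inhibition of steady-state ATPase read at 340 nm through a PK/LDH-coupled NADH system (0.5 mM NADH, 1.5 mM PEP). Detergent-skinned bovine cardiac myofibrils, 1 mg/mL, were tested at pH 6.8 in PIPES/MgCl2 with 50 μM ATP and calcium adjusted to give pCa50 or pCa75 activation.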

Where only a bound is given, the exact number is not on record here.

bovine cardiac myofibrils (full-length cardiac myosin ATPase in the native sarcomere), sequence (Q9BE39 whole entry): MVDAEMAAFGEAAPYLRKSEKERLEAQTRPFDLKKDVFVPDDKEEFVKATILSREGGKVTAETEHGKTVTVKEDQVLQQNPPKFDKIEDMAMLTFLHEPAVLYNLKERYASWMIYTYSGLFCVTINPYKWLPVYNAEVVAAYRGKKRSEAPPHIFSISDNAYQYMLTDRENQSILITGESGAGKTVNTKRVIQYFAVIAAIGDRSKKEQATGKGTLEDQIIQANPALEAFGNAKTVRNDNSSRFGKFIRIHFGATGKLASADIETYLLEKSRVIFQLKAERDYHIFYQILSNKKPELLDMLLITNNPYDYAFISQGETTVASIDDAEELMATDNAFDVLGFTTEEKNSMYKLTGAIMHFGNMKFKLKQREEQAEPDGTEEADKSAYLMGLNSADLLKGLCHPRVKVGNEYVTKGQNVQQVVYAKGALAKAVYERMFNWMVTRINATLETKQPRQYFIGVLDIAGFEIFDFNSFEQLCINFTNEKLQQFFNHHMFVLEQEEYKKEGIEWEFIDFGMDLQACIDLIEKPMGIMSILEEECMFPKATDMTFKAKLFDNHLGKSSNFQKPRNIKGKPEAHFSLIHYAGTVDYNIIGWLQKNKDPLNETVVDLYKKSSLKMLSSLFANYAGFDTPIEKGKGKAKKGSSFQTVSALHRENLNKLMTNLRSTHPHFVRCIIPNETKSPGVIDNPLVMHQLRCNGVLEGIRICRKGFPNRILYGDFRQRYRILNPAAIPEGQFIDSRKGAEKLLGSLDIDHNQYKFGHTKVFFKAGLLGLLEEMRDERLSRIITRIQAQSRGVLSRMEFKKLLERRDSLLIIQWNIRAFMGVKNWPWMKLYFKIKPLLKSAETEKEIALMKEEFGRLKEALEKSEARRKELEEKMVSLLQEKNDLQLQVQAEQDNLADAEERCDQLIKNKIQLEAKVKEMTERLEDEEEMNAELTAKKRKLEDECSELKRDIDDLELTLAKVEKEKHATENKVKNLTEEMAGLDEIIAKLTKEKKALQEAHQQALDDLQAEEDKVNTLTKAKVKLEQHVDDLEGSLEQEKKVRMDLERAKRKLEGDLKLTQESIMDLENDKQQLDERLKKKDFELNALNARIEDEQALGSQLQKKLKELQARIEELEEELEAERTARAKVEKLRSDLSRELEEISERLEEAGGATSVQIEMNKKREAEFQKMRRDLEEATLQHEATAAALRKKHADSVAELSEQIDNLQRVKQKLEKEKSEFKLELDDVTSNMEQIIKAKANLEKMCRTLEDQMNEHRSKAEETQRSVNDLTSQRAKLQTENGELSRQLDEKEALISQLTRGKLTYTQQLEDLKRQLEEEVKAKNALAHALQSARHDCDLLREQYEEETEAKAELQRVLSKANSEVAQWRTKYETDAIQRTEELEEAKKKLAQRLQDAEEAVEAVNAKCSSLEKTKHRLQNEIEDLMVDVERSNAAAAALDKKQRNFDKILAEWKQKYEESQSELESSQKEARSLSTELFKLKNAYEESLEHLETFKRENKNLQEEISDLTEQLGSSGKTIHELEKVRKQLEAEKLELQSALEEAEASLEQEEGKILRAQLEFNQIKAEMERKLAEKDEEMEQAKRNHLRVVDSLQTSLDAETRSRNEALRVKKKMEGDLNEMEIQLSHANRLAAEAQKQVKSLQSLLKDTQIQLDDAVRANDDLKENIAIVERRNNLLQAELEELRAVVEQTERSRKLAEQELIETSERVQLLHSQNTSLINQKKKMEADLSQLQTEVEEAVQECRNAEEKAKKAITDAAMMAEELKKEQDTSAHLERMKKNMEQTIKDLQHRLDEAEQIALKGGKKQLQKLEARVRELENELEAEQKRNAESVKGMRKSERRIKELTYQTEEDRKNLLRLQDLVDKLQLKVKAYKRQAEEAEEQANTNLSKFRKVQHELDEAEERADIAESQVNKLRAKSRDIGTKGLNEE
bovine cardiac myofibrils (full-length cardiac myosin ATPase in the native sarcomere), sequence (P85100 whole entry partner): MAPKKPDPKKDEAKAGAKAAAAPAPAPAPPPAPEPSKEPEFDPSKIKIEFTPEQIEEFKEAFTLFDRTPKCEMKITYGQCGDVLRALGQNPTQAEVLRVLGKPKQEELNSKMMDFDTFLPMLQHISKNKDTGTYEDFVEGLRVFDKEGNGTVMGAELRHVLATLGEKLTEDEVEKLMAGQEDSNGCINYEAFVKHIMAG
bovine cardiac myofibrils (full-length cardiac myosin ATPase in the native sarcomere), sequence (Q3SZE5 whole entry partner): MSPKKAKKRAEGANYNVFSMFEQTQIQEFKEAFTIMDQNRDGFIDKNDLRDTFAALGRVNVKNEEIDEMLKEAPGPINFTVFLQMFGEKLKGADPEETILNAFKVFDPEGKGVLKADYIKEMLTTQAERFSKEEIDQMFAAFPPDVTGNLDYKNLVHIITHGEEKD

By IC50 is commonly meant the concentration at which inhibition is half-maximal. For `CCc1nc(-c2ccc3c(c2)CC[C@H]3NC(=O)c2ccon2)no1` [Compound 585, (R)-N-(5-(5-ethyl-1,2,4-oxadiazol-3-yl)-2,3-dihydro-1H-inden-1-yl)isoxazole-3-carboxamide], the “CDMF75 IC15” value stood at 0.5 µM and the IC50 turned out to be 2.5 µM.

Consider `CCc1nc(-c2ccc3c(c2)CC[C@H]3NC(=O)c2coc(CS(C)(=O)=O)n2)no1` [Compound 468, (R)-N-(5-(5-ethyl-1,2,4-oxadiazol-3-yl)-2,3-dihydro-1H-inden-1-yl)-2-((methylsulfonyl)methyl)oxazole-4-carboxamide], for which the “CDMF75 IC15” value came to 6.6 µM and the IC50 stood at 39.2 µM.

Consider `Cc1ncc(C(=O)NC2CCc3cc(-c4noc(C(F)F)n4)ccc32)n1C` (stereo not shown) [Compound 61, N-(5-(5-(difluoromethyl)-1,2,4-oxadiazol-3-yl)-2,3-dihydro-1H-inden-1-yl)-1,2-dimethyl-1H-imidazole-5-carboxamide], for which the “CDMF75 IC15” value stood at 1.1 µM and the IC50 amounted to 3.5 µM.

For the molecule `CCc1nc(-c2ccc3c(c2)CC[C@H]3NC(=O)c2ccnc(C(F)F)c2)no1` [Compound 578, (R)-2-(difluoromethyl)-N-(5-(5-ethyl-1,2,4-oxadiazol-3-yl)-2,3-dihydro-1H-inden-1-yl)isonicotinamide], the “CDMF75 IC15” value is 0.4 µM and the IC50 came to 1.2 µM.

With `Cc1nc(-c2ccc3c(c2)OC[C@H]3NC(=O)c2cnc(C)o2)no1` [Compound 167, (S)-2-methyl-N-(6-(5-methyl-1,2,4-oxadiazol-3-yl)-2,3-dihydrobenzofuran-3-yl)oxazole-5-carboxamide], the “CDMF75 IC15” value was found to be 1.0 µM and the IC50 is 3.8 µM.

On to `Cc1ncoc1C(=O)N[C@@H]1CCc2cc(-c3noc(C(F)F)n3)ccc21` [Compound 448, (R)-N-(5-(5-(difluoromethyl)-1,2,4-oxadiazol-3-yl)-2,3-dihydro-1H-inden-1-yl)-4-methyloxazole-5-carboxamide], for which the “CDMF75 IC15” value amounted to 0.3 µM and the IC50 stood at 0.9 µM.

Turning to `[2H]C([2H])([2H])C(=O)N[C@@H]1CCc2cc(-c3noc(CC)n3)ccc21` [Compound 446, (R)-N-(5-(5-ethyl-1,2,4-oxadiazol-3-yl)-2,3-dihydro-1H-inden-1-yl)acetamide-2,2,2-d3], the “CDMF75 IC15” value was 0.7 µM and the IC50 was 2.6 µM.

Consider `CCc1noc(-c2ccc3c(c2)CC[C@H]3NC(=O)c2cnn(C)c2)n1` [Compound 254, (R)-N-(5-(3-ethyl-1,2,4-oxadiazol-5-yl)-2,3-dihydro-1H-inden-1-yl)-1-methyl-1H-pyrazole-4-carboxamide], for which the “CDMF75 IC15” value worked out at 1.3 µM and the IC50 stood at 4.9 µM.

Take `[2H]C([2H])([2H])c1nc(-c2ccc3c(c2)OC[C@H]3NC(=O)c2oc(C)nc2C)no1` [Compound 268, (S)-2,4-dimethyl-N-(6-(5-(methyl-d3)-1,2,4-oxadiazol-3-yl)-2,3-dihydrobenzofuran-3-yl)oxazole-5-carboxamide]: the “CDMF75 IC15” value stood at 1.9 µM and the IC50 stood at 5.1 µM.

As to `O=C(NC1CCc2cc(-c3noc(C(F)F)n3)ccc21)c1cn[nH]c1` (stereo not shown) [Compound 50, N-(5-(5-(difluoromethyl)-1,2,4-oxadiazol-3-yl)-2,3-dihydro-1H-inden-1-yl)-1H-pyrazole-4-carboxamide], the “CDMF75 IC15” value was found to be 1.5 µM and the IC50 turned out to be 5.2 µM.

On to `Cc1cc(C(=O)N[C@@H]2COc3cc(-c4cc(C)on4)ccc32)ccn1` [Compound 430, (S)-2-methyl-N-(6-(5-methylisoxazol-3-yl)-2,3-dihydrobenzofuran-3-yl)isonicotinamide], for which the “CDMF75 IC15” value amounted to 1.0 µM and the IC50 amounted to 3.2 µM.

As to `CCc1nc(-c2ccc3c(c2)CC[C@H]3NC(=O)c2cnon2)no1` [Compound 615, (R)-N-(5-(5-ethyl-1,2,4-oxadiazol-3-yl)-2,3-dihydro-1H-inden-1-yl)-1,2,5-oxadiazole-3-carboxamide], the “CDMF75 IC15” value came out at 0.4 µM and the IC50 came out at 1.4 µM.

For the molecule `CCc1nc(-c2ccc3c(c2)CC[C@H]3NC(=O)c2ccno2)no1` [Compound 581, (R)-N-(5-(5-ethyl-1,2,4-oxadiazol-3-yl)-2,3-dihydro-1H-inden-1-yl)isoxazole-5-carboxamide], the “CDMF75 IC15” value was 0.4 µM and the IC50 was determined as 1.4 µM.

As to `CCc1nc(-c2ccc3c(c2)CC[C@H]3NC(=O)c2cnn(C3CN(C(=O)NC)C3)c2)no1` [Compound 479, (R)-N-(5-(5-ethyl-1,2,4-oxadiazol-3-yl)-2,3-dihydro-1H-inden-1-yl)-1-(1-(methylcarbamoyl)azetidin-3-yl)-1H-pyrazole-4-carboxamide], the “CDMF75 IC15” value worked out at 4.5 µM and the IC50 is 23.1 µM.

On to `CCc1nc(-c2ccc3c(c2)CC[C@H]3NC(=O)OCC(F)F)no1` [Compound 333, 2,2-difluoroethyl (R)-(5-(5-ethyl-1,2,4-oxadiazol-3-yl)-2,3-dihydro-1H-inden-1-yl)carbamate], for which the “CDMF75 IC15” value stood at 0.3 µM and the IC50 amounted to 0.9 µM.

With `CN1CCN(C(=O)N[C@@H]2CCc3cc(-c4noc(C(F)F)n4)ccc32)CC1` [Compound 302, (R)-N-(5-(5-(difluoromethyl)-1,2,4-oxadiazol-3-yl)-2,3-dihydro-1H-inden-1-yl)-4-methylpiperazine-1-carboxamide], the “CDMF75 IC15” value amounted to 39.2 µM and the IC50 is > 39.2 µM.

Consider `CCc1nc(-c2ccc3c(c2)CC[C@H]3NC(=O)c2ccn(C)c(=O)c2)no1` [Compound 558, (R)-N-(5-(5-ethyl-1,2,4-oxadiazol-3-yl)-2,3-dihydro-1H-inden-1-yl)-1-methyl-2-oxo-1,2-dihydropyridine-4-carboxamide], for which the “CDMF75 IC15” value was 2.0 µM and the IC50 was found to be 8.3 µM.

On to `COCc1nc(-c2ccc3c(c2)CC[C@H]3NC(=O)c2cn(C)nc2C)no1` [Compound 182, (R)-N-(5-(5-(methoxymethyl)-1,2,4-oxadiazol-3-yl)-2,3-dihydro-1H-inden-1-yl)-1,3-dimethyl-1H-pyrazole-4-carboxamide], for which the “CDMF75 IC15” value stood at 1.0 µM and the IC50 was 4.1 µM.

On to `COCc1nc(-c2ccc3c(c2)OC[C@H]3NC(=O)c2cccc(CO)c2)no1` [Compound 711, (S)-3-(hydroxymethyl)-N-(6-(5-(methoxymethyl)-1,2,4-oxadiazol-3-yl)-2,3-dihydrobenzofuran-3-yl)benzamide], for which the “CDMF75 IC15” value is 0.8 µM and the IC50 worked out at 2.8 µM.

On to `Cn1nnc(C(=O)N[C@@H]2CCc3cc(-c4nc(C(F)F)no4)ccc32)n1` [Compound 216, (R)-N-(5-(3-(difluoromethyl)-1,2,4-oxadiazol-5-yl)-2,3-dihydro-1H-inden-1-yl)-2-methyl-2H-tetrazole-5-carboxamide], for which the “CDMF75 IC15” value worked out at 1.3 µM and the IC50 turned out to be 4.9 µM.

For `CCc1nc(-c2ccc3c(c2)CC[C@H]3NC(=O)c2ccnc(OC)c2)no1` [Compound 557, (R)-N-(5-(5-ethyl-1,2,4-oxadiazol-3-yl)-2,3-dihydro-1H-inden-1-yl)-2-methoxyisonicotinamide], the “CDMF75 IC15” value is 0.4 µM and the IC50 worked out at 1.4 µM.

Take `Cc1nc(-c2ccc3c(c2)CCC3NC(=O)Nc2cncnc2)no1` (stereo not shown) [Compound 96, 1-(5-(5-methyl-1,2,4-oxadiazol-3-yl)-2,3-dihydro-1H-inden-1-yl)-3-(pyrimidin-5-yl)urea]: the “CDMF75 IC15” value worked out at 3.0 µM and the half-inhibitory concentration (IC50) was determined as 13.4 µM.

Turning to `CCn1nccc1C(=O)NC1CCc2cc(-c3noc(C(F)F)n3)ccc21` (stereo not shown) [Compound 29, N-(5-(5-(difluoromethyl)-1,2,4-oxadiazol-3-yl)-2,3-dihydro-1H-inden-1-yl)-1-ethyl-1H-pyrazole-5-carboxamide], the “CDMF75 IC15” value came out at 1.2 µM and the IC50 is 5.3 µM.

`Cc1cc(C(=O)N[C@@H]2CCc3cc(-c4nnn(C)n4)ccc32)ccn1` [Compound 147, (R)-2-methyl-N-(5-(2-methyl-2H-tetrazol-5-yl)-2,3-dihydro-1H-inden-1-yl)isonicotinamide]: the “CDMF75 IC15” value is 1.3 µM and the IC50 came to 6.2 µM.

For the molecule `CCc1nc(-c2ccc3c(c2)CC[C@H]3NC(=O)c2cnco2)no1` [Compound 584, (R)-N-(5-(5-ethyl-1,2,4-oxadiazol-3-yl)-2,3-dihydro-1H-inden-1-yl)oxazole-5-carboxamide], the “CDMF75 IC15” value was 0.3 µM and the IC50 worked out at 1.2 µM.

Take `Cc1cncc(-c2ccc3c(c2)CC[C@H]3NC(=O)c2ccnn2C)c1` [Compound 376, (R)-1-methyl-N-(5-(5-methylpyridin-3-yl)-2,3-dihydro-1H-inden-1-yl)-1H-pyrazole-5-carboxamide]: the “CDMF75 IC15” value came to 3.9 µM and the IC50 is 18.5 µM.

With `O=C(NC1CCc2cc(-c3noc(C(F)F)n3)ccc21)c1ccn[nH]1` (stereo not shown) [Compound 49, N-(5-(5-(difluoromethyl)-1,2,4-oxadiazol-3-yl)-2,3-dihydro-1H-inden-1-yl)-1H-pyrazole-5-carboxamide], the “CDMF75 IC15” value is 9.8 µM and the IC50 was > 39.2 µM.

Consider `Cc1nocc1C(=O)N[C@@H]1CCc2cc(-c3noc(C(F)F)n3)ccc21` [Compound 677, (R)-N-(5-(5-(difluoromethyl)-1,2,4-oxadiazol-3-yl)-2,3-dihydro-1H-inden-1-yl)-3-methylisoxazole-4-carboxamide], for which the “CDMF75 IC15” value was found to be 0.3 µM and the IC50 is 0.9 µM.

Consider `Cn1ncc(C(=O)NC2CCc3cc(-c4noc(C(F)F)n4)ccc32)n1` (stereo not shown) [Compound 83, N-(5-(5-(difluoromethyl)-1,2,4-oxadiazol-3-yl)-2,3-dihydro-1H-inden-1-yl)-2-methyl-2H-1,2,3-triazole-4-carboxamide], for which the “CDMF75 IC15” value is 1.9 µM and the IC50 worked out at 7.8 µM.
